Measurements reported in patent US11160788B2, “Caspase-1 inhibition and uses thereof for prevention and treatment of neurological conditions” (priority 2016, dated 2021).
“Also recorded” adds a separate entry of the source.

Experiments:
[1] = Blood brain barrier permeability, brain and plasma levels; type: in vivo, mouse; settings: WT and J20 mice
Procedure: FIG. 14: Selectivity and blood brain permeability of VX-765 and VRT-043198. (a-b) IC50 of VX-765 (a) and VRT-043198 (b) against human Casp1-10. (c-d) IC50 of VX-765 (c) and VRT-043198 (d) against mouse Casp1 and Casp11. (e) Blood brain barrier permeability and presence of VX-765 and VRT-043198 in 3 wild type and 4 J20 mice brain cortex and hippocampus and in plasma. Ratios of brain levels to plasma levels are calculated.

[2] = system: J20 mice; assay: Open field hyperactivity, treatment of symptomatic J20 mice; type: in vivo, mouse; settings: for hyperactivity in open field: Treatment 2; for hyperactivity, distance travelled in open field: 50 mg/kg IP
Description: (§1) FIG. 8: VX-765 treatment restores cognitive function in J20 mice. (a) Experimental paradigm. Intraperitoneal vehicle-injected wild type (WT+Vehicle; n=13) and J20 mice (J20+Vehicle: n=9), and VX-765-injected J20 mice (J20+VX-765: n=9) mice were behaviourally assessed at 5 different time-points: baseline before treatment (baseline untreated J20 were grouped together; n=18), after 3 IP injections/wk of VX-765 or vehicle (Treatment 1), after 6 additional injections over 2 weeks (Treatment 2), after 4-week Washout period, and after an additional 3 injections in one week (Treatment 3). Mice were sacrificed at 8 months of age after Treatment 3 (b) NOR Discrimination index (Treatment main effect, F(2,20)=85.8, p<0.0001; Time main effect, F(4,80)=4.188, p=0.0039; Treatment×Time interaction, F(8,80)=[…], two-way repeated-measures ANOVA, Dunnett's post-hoc compared to J20+Vehicle). (c) Distance traveled during Open Field task. Data analyzed by repeated measures two-way ANOVA (Treatment main effect, F(2,19)=11.47, p=0.0005; Treatment×Time interaction, F(8,76)=5.69, p<0.0001, two-way repeated-measures ANOVA, Dunnett's post-hoc compared to J20+Vehicle). (d-i) Barnes maze analysis. Learning acquisition (d,g), probe test primary latency and errors (e,h), and target hole preference (f,i); # of pokes of each hole labelled +1 to +9 to the right or −1 to −9 to the left of the target hole during the probe) after Treatment 2 (d-f) and Washout (g-i). Probe tests were analyzed (Treatment 2 primary latency, F(2,52)=5.879, p=0.0050; Treatment 2 primary errors, F(2,52)=9.998, p=0.0002; Washout primary latency, F(2,22)=4.076, p=0.0312; Washout primary errors, F(2,22)=10.84, p=0.0005, ANOVA, Tukey's post-hoc). * p<0.05, ***p<0.001, ****p<0.0001.
Anxiety and hyperactivity are monitored in an open-field paradigm, episodic memory with the NOR, spatial memory with the Barnes maze, and short or long term working memory with the Y maze before and after treatments. Repeated measures are acceptable for the NOR, Barnes and Y maze^2-4. […]

[3] = system: J20 mice; assay: GFAP astrogliosis, treated symptomatic J20 mice brains; type: in vivo, mouse; settings: 50 mg/kg
Description: FIG. 18: ELISA measures of cytokines in vehicle-treated WT and J20 mice and VX-765-treated J20 mice. (a) Plasma levels of II-1β in mice after T3. (b) Cytokine levels in vehicle-treated WT and J20 and in VX-765-treated J20 brain hippocampi and cortex. (c) GFAP immunostaining density in vehicle-treated WT (n=6) and J20 (n=5) and in VX-765-treated J20 (n=4) brain hippocampi (F(2,12)=5.234, p=0.0232, ANOVA, Dunnett's post-hoc compared to WT+Vehicle, *p<0.05) and cortex. (d) Western blots and quantitative analyses of GFAP in vehicle-treated WT and J20 and in VX-765-treated J20 brain hippocampi and cortex.
To assess AD-like pathology, immunohistochemical analyses were performed to detect amyloid deposition (anti-AβF25276)^5,6, microglial (Iba1) activation^7, astrogliosis (GFAP), synaptophysin protein levels on coronal brain sections. Multiplex MSD ELISA was used to assess Aβ levels and 38,40, and 42 subtypes, and II-1β brain levels. RT-PCR was used to assess levels of human APP^Sw/Ind.

[4] = system: J20 mice; assay: Novel object recognition (NOR), treatment of symptomatic J20 mice; type: in vivo, mouse; settings: for NOR behavior: 10 mg/kg; for NOR discrimination index: 25 mg/kg; for NOR deficit: 50 mg/kg IP
Description: as §1
[…] The 20-week-old mice were treated per the paradigm in section. VX-765 reverses episodic memory deficits in the J20 mouse.
Anxiety and hyperactivity are monitored in an open-field paradigm, episodic memory with the NOR, spatial memory with the Barnes maze, and short or long term working memory with the Y maze before and after treatments. Repeated measures are acceptable for the NOR, Barnes and Y maze^2-4.
J20 and littermate WT mice (20 wks) were first tested for episodic memory deficits with Novel Object Recognition (NOR) and anxiety and hyperactivity in an open-field paradigm. […] The injections were continued for 2 weeks at 3 injections/week (48 hr intervals between injections and 3 day interval between weeks) and mice retested. […]

[5] = system: serum-deprived human neurons; assay: Aβ42/total Aβ and cytokine levels of serum-deprived human neurons; type: cell-based
Procedure: FIG. 13: VX-765 protects CNS primary human neurons (HPN) against APP- or serum deprivation-mediated neuritic beading. (a) MTT assay with increasing dose of VX-765. (b) Fluorescent micrographs showing homogeneous distribution of EGFP in normal neurons and neuritic beading in APP-transfected neurons. (c) Percentage beading in APP-transfected or serum-deprived neurons treated 1 h before and continuously with stressor (Pre-treatment) or 48 h after stressor (post-beading treatment) with 25 or 50 μM VX-765 or with 5 μM Z-YVAD-fmk Casp1 peptide inhibitor. […] (d-e) HPN secreted or cellular Aβ42/total Aβ38+40+42 (d) (F(3,4)=12.73, p=0.0163, ANOVA, Dunnett's post-hoc compared to Serum+DMSO, *p<0.05), and (e) levels of secreted II-1β, IFN-γ, TNF-α, and II-6 from untreated (+S), serum deprived (−S), or serum-deprived human neurons treated with 25 or 50 μM VX-765.

Question: What does the source list for `CCO[C@@H]1OC(=O)C[C@@H]1NC(=O)[C@@H]1CCCN1C(=O)[C@@H](NC(=O)c1ccc(N)c(Cl)c1)C(C)(C)C` [VX-765, (S)-1-((S)-2-{[1-(4-amino-3-chloro-phenyl)-methanoyl]-amino}-3,3-dimethyl-butanoyl)-pyrrolidine-2-carboxylic acid ((2R,3S)-2-ethoxy-5-oxo-tetrahydro-furan-3-yl)-amide]?
Answer: blood brain barrier crossing [1]: crossed the blood brain barrier; concentrations in hippocampus and cortex [1]: reached physiologically active concentrations; metabolism of the pro-drug [1]: metabolized into VRT-043198; hyperactivity in open field ([2]; 10 mg/kg): non-significant improvement at T2 with 25, but not 10; hyperactivity in open field ([2]; 25 mg/kg): non-significant improvement; hyperactivity, distance travelled in open field ([2]; Treatment 2 (3 weeks of treatment)): attenuated only after 3 weeks of treatment; also recorded: attenuated by VX-765 only after T2; hyperactivity, distance travelled in open field ([2]; Treatment 3): significantly reduced after T3; hyperactivity, distance travelled in open field ([2]; after washout): reappeared after WO; GFAP astrogliosis in cortex and hippocampus ([3]; after Treatment 3): almost returned to WT levels; GFAP in cortex ([3]; densitometry, 12 injections): reduced in VX-765-treated J20 cortex, but the data did not reach statistical significance; NOR behavior ([4]; Treatment 1 and 2): normalized NOR behavior only after T2; NOR behavior ([4]; Treatment 3): reappeared after T3; NOR behavior ([4]; washout): washed out; NOR discrimination index ([4]; Treatment 1): normalized; NOR discrimination index ([4]; Treatment 2): normalized; NOR discrimination index ([4]; Treatment 3): returned to normal at T3; NOR discrimination index ([4]; washout): deficits reappeared after WO; NOR deficit ([4]; after 3 injections (Treatment 1)): reverted to normal; also recorded: reversed and reached near-normal levels; NOR deficit ([4]; after 3 more injections (Treatment 3)): attenuated NOR deficits; also recorded: disappeared again after T3; NOR deficit ([4]; after 4-week washout): NOR deficits reappeared; also recorded: reappeared after the WO period; NOR deficit ([4]; after additional 2 weeks of injections (Treatment 2)): continued to perform normally; also recorded: reversed and reached near-normal levels; secreted and cellular Aβ42/total Aβ levels ([5]; 25 μM): reduced secreted, but not cellular; secreted and cellular Aβ42/total Aβ levels ([5]; 50 μM): reduced secreted and cellular; levels of II-1β, IFN-γ, TNF-α, and II-6 ([5]; 25 and 50 μM, trend, not statistically significant): reduced at both concentrations
